Test results from paper PMC2289708 (The Journal of Cell Biology, 1992).

Experiments:
[1] = type: in vitro ADME, human; details: lysed on ice for 5 min before addition of PCA, relative to samples receiving PCA <30 s after lysis; HPLC; not shown
[2] = ref Safer et al., 1990; cited from earlier work
muscle G-actin [3] = details: cited from earlier work
muscle G-actin [4] = experiment: TB4 binding to muscle G-actin from rates of pyrenyl actin elongation; set-up: species or system rabbit
[5] = system: platelet actin (cell actin); details: ref Weber et al., 1992, cited from earlier work
G-actin = experiment: Non-denaturing PAGE and immunoblot of PMN supernatants for G-actin/TB4 complex; type: binding, human
[6] = system: G-actin/TB4 complex in human PMNs; experiment: Change in G-actin/TB4 complex band after stimulation of PMNs; type: cell-based; details: 10^-7 M FNLLP, 30 s
F-actin in human PMNs = experiment: F-actin level in PMNs, rhodamine phalloidin binding; type: cell-based
pyrenyl G-actin = pyrenyl G-actin (Oryctolagus cuniculus, UniProt P68135); type: biochemical, rabbit

Thymosin beta 4 [TB4]
TB4 remaining in cell lysate [1]: 95%
activity after boiling [2]: remains active after boiling
Kd (muscle G-actin [3]; read-out: Kd for muscle actin (literature), ref Weber et al., 1992): 2000 nM
kon (literature) (muscle G-actin [3]; ref Goldschmidt-Clermont et al. (1992)): 0.75 s⁻¹
effect of PIPs on binding (muscle G-actin [3]; ref Janmey et al., 1992): nor affected by PIPs
binding to pyrene vs unlabeled muscle actin (muscle G-actin [3]; ref Weber et al., 1992): binds equally well to pyrene and unlabeled muscle actin
calcium sensitivity of binding (muscle G-actin [3]; ref Weber et al., 1992): neither calcium sensitive
kinetics of bovine spleen T beta 4 binding to muscle pyrenyl G-actin (muscle G-actin [4]): sufficiently rapid to accommodate the rapid changes in actin polymerization and depolymerization observed in vivo
effect of preincubation with TB4 on polymerization rate (muscle G-actin [4]; 2 μM pyrenyl G-actin with 5 μM TB4, F-actin nuclei): slower rate of polymerization
time for slope to shift to that of preincubated samples (muscle G-actin [4]; 5 μM TB4 added after polymerization started, mixing interval, all n = 7 samples): ≤ 6 s
kon (rate constant of binding), minimal (muscle G-actin [4]; bovine spleen TB4 5 μM, 2 μM pyrenyl muscle G-actin, Equation 1, SD 0.003, n = 7): > 45000 M⁻¹ s⁻¹
koff, minimal (muscle G-actin [4]; from Kd and minimal kon, muscle actin): greater than 0.09 s-1
Kd ([5]; read-out: Kd for platelet / cell actin): 600 nM
affinity for nonmuscle vs muscle actin [5]: approximately threefold higher
PMN band antibody reactivity (actin and TB4) (G-actin; immunoblot of band with mobility similar to actin/TB4 complex): reacts positively with antibodies to both actin
fraction of G-actin migrating like G-actin/T beta 4 complex (G-actin; supernatants from resting PMNs, 7.5% non-denaturing gels): a large fraction of G-actin in supernatants prepared from resting PMNs has a mobility similar to the G- actin/T beta 4 complex

formylnorleucyileucylphenylalanine [FNLLP]
TB4 staining of actin/TB4 band after stimulation, anti-TB4 immunoblot ([6]; 23°C, n = 6): 53 + 9 % of the resting cell level
intensity of G-actin/TB4 band, Coomassie blue ([6]; non-denaturing gel): reduces the intensity of the G-actin/T~4 band
F-actin upon stimulation (F-actin in human PMNs; 10^-7 M FNLLP, 30 s, n = 6): 200 + 42 % of the amount in resting cel
F-actin of stimulated vs resting cells (Fig. 4 experiment) (F-actin in human PMNs; 10^-7 M FNLLP, 30 s, not shown): approximately twice
F-actin increase upon stimulation (Fig. 3a) (F-actin in human PMNs; 10^-7 M FNLLP, 30 s, single representative experiment of Fig. 3): 1.5 fold
slope of pyrenyl actin polymerization in stimulated cell supernatant (pyrenyl G-actin; Fig. 4, R2 = 0.777, resting supernatant slope 13.6, 10^-7 M FNLLP, 30 s): 6.1 fluorescent U/min
inhibitory activity of boiled supernatants, resting vs stimulated (pyrenyl G-actin; boiled supernatants from resting and FNLLP-stimulated cells, not shown): approximately equal inhibitory activity
rate of pointed end polymerization in stimulated supernatant (Fig. 4) (pyrenyl G-actin; single experiment of Fig. 4, 10^-7 M FNLLP, 30 s): 45 % of the rate in the resting supernatant

C=C1[C@@H](C)[C@H]2[C@H](Cc3ccccc3)NC(=O)[C@]23OC(=O)/C=C/[C@H](O)CCC[C@@H](C)C/C=C/[C@H]3[C@@H]1O [cytochalasin B]
effect on chemoattractant induced increase in F-actin (F-actin in human PMNs; cytochalasin B with FNLLP, 2 μM in Fig. 3a): blocks the chemoattractant induced in- crease in F-actin
